From ChEMBL document CHEMBL4196156, “Allosteric Modulators of the M4 Muscarinic Acetylcholine Receptor” (ACS Med Chem Lett, 2018)

molecular target: T1, Muscarinic acetylcholine receptor M4 (Homo sapiens, UniProt P08173); test: Positive allosteric modulation of human muscarinic acetylcholine receptor M4 expressed in CHO-K1 cells coexpressing Galphaqi5 assessed as increase in acetylcholine-induced […] incubated for 16 to 20 hrs measured for 3.5 to 4 mins by FLIPR assay; type: functional, cell-based
T1 sequence (P08173 whole entry): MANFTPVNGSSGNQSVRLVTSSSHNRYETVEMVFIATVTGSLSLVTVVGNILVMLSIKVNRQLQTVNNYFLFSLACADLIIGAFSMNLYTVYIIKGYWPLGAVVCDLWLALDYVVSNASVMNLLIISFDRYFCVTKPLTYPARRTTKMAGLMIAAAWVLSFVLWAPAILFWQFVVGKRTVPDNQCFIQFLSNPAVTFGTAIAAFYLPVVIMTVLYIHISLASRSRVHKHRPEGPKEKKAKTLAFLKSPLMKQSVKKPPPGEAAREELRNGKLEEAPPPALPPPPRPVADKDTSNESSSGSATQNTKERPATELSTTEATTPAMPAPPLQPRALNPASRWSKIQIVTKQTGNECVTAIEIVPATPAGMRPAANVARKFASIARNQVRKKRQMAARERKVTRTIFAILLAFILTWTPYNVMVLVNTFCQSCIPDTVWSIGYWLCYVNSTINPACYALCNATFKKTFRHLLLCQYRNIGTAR

EC50 [nM]	SMILES
15	COc1ccc(OC2CCN(c3nc4oc(=O)[nH]c(=O)c4c(Cl)c3C)CC2)cn1
25	COc1ccc(OC2CCN(c3nc(CO)nc(Cl)c3C)CC2)cn1
17	Cc1cc2c(nc1N1CC[C@@H](Oc3ccc4c(cnn4C)c3)[C@@H](F)C1)CNC2=O
